Measurements taken from US20040106150A1, “Inverse labeling method for the rapid identification of marker/target proteins” (priority 2000, published 2004).
Entries after “also recorded” stand apart in the source; their conditions may differ.

What was measured:
[1] = test system: HCT116 cells; test: Inverse labeling-MS phosphorylation analysis of HCT116 cell lysate treated with Raf inhibitor; assay type: cell-based, Human; details: for Change (treated/control) / Change (treated/control), % down: HCT116 cells, 20 μM, 1.5 hours vs DMSO control
Protocol: Human colorectal cell line HCT116 cells are grown in 6-well plates. Prior to harvesting, the cells are treated with 20 μM of the Raf inhibitor BPMI and DMSO control for 1.5 hours, respectively. Cells are then rinsed with PBS, and lysed for 5 mintues at 4° C. in Doriano lysis buffer with 100 μg/mL Perfabloc/2 μg/mL aprotinin/2 μg/mL leupeptin/1 mM NaVO4/10 mM NaF. The supernatant of the lysates are collected after centrifugation at 3,000 rpm for 5 minutes. The protein concentration is determined using Bio-Rad reagent, and the lysates are frozen at −80° C. prior to further processing and analysis.
One μL of RNase A (20 mg/mL, Sigma, St Louis, Mo.) and 1 μL of RNase T1 (10 units/mL, Invitrogen, Carlsbad, Calif.) are added to each 1 mL of lysates (total 3 mg of HCT116-DMSO control and 3 mg of HCT116-BPMI, respectively), and incubated at 37° C. for half an hour to degrade RNAs. Proteins are denatured using 6 M guanidine HCl, followed by reduction with 20 mM 1,4-dithio-DL-threitol (DTT) at 58° C. for 40 minutes and alkylation with 40 mM iodoacetamide at room temperature for 30 minutes in the dark. Each protein solution is transferred to a Slide-A-Lyzer ( 10,000 MW cutoff, Pierce, Rockford, Ill.) dialysis cassette and dialyzed against 2 to 0 M urea/50 mM ammonium bicarbonate to remove small molecule impurities and buffer exchange to 50 mM ammonium bicarbonate. Proteolysis is carried out using modified, sequencing grade trypsin (Promega, Madison, Wis.) at a 1:200 trypsin-to-protein ratio (wt:wt) in 50 mM ammonium bicarbonate at 37° C. overnight.
The peptide digests are filtered through Centricon Filters (10,000 MW cutoff, Millipore, Bedford, Mass.) to remove large molecule impurities including detergents. Flow-through (peptides) is collected. Solvent and ammonium bicarbonate are subsequently removed by SpeedVac drying.
d0- or d3-methanolic HCl (2 M) (methyl esterification reagent) is prepared by adding 160 μL of acetyl chloride to 1 mL of anhydrous d0-methyl alcohol or d3-methyl d-alcohol drop wise while stirring. After 10 minutes, 1 mL of the methyl esterification reagent is added to 1.5 mg of lyophilized peptide mixture. The reaction is performed in parallel to two identical aliquots for every sample, one using d0-reagent and one using d3-reagent, respectively. The reaction is allowed to proceed at room temperature for 30 minutes. The excess reagents are removed by SpeedVac drying. Subsequently the peptide mixtures are reconstituted with water. The inverse labeling is achieved by mixing d0-control with d3-treated (BPMI) and d3-control with d0-treated.
Enrichment of phosphopeptides is performed on a 2.1×30 mm IMAC column (POROS 20 MC, Applied Biosystems, Foster City, Calif.). Briefly, the column is washed with water, 100 mM EDTA in 1 M NaCl, followed by water and 1% acetic acid. The column is then activated with 100 mM FeCl3. The SpeedVac dried, 1 mg of the inversely-labeled methyl esterified peptide mixture (500 μg each form of d0 and d3) is dissolved in 1% acetic acid in 50% acetonitrile/water, and loaded onto iron-activated IMAC column. The unbound peptides are removed by washing with 1% acetic acid in 50% acetonitrile/water ([…]). The bound phosphopeptides are eluted with 2% ammonium hydroxide in 50% acetonitrile/water. Acetic acid is added to neutralize the eluent prior to SpeedVac drying. The phosphopeptide mixture is reconstituted with 0.1% formic acid and analyzed using capillary LC/MS, as described below.
An Ultimate capillary/nano HPLC system (LC Packings, San Francisco, Calif.) with a Swichos micro column-switching module (LC Packings, San Francisco, Calif.) is used for analysis. Separation is carried out on a 0.18×50 mm capillary column, packed with 3 μm C18 stationary phase of 300-Å pore size (PepMap, LC Packings, San Francisco, Calif.), operating at a flow rate of 2 μL/min. Mobile phase A consists of 0.1% (v/v) formic acid in water and mobile phase B of 0. 1% (v/v) formic acid in acetonitrile. […]

[2] = test system: tumor tissue DU145; test: Inverse labeling-MS phosphorylation analysis of tissue lysate of mouse tumor xenograft (tumor tissue DU145), in vivo study; set-up: Change (treated/control), % down: concentration or dose not given beside the values; details: for Change (treated/control) / Change (treated/control), % down: tumor tissue, 1 hour treatment
Protocol: The phosphoproteome mapping method is further tested/applied to an in vivo study of the Raf inhibitor, BPMI (1-hour treatment) in the analysis of tissue lysate of mouse tumor xenograft. […] Although the usual 1 mg of lysate is processed and IMAC enriched, considering the overwhelming blood protein contamination, the actual amount of tissue lysate proteins in the sample is a lot less. For that reason, only 0.05% β-casein is spiked into each tissue lysate sample as internal standard. The methyl esterification/IMAC procedure is successful in removing the blood contamination from the tissue samples. As shown in FIG. 15 (B), inverse labeling-MS analysis after IMAC enrichment clearly detects the down-regulation of Ser^25 phosphorylation of oncoprotein 18, confirming the finding of the cellular studies. Additional changes in phosphorylation are also detected which includes oncogene EMS1, mouse fetuin and Epithelial-cadherin (see Table 3).

[3] = phosphopeptide ASGQAFELILpSPR, Oncoprotein 18
[4] = phosphopeptide IEpSPKLER, Heat-shock 110 kD protein
[5] = phosphopeptide LPpSSPVYEDAASFK, Oncogene EMS1
[6] = phosphopeptide RLpSPSApSPPR, Ser/Arg-related nuclear matrix protein
[7] = phosphopeptide SKESVPEFPLpSPPK, Oncoprotein 18
[8] = phosphopeptide pTQTPPVpSPAPQPTEER, Oncogene EMS1
[9] = phosphopeptide MRDWVIPPIpSCPENEK, Epithelial-cadherin (mouse/human)
[10] = phosphopeptide VoxMHTQCHSTPDpSAEDVR, Mouse fetuin

Compound: CC(C)(C)c1ccc(Nc2ncc(Cc3ccncc3)c3ccccc23)cc1 [BPMI, 1-(4-t-butylanilino)-4-[(pyridin-4-yl)-methyl]-isoquinoline]
- OP18 (oncoprotein 18) Ser25 phosphorylation ([1]; HCT116 cell lysate, treated vs control): significantly down-regulated; also recorded: Down-regulation
- Change (treated/control) [1, 3]: 0.4
- Change (treated/control), % down [1, 3]: 60%
- Change (treated/control) [1, 4]: 0.7
- Change (treated/control), % down [1, 4]: 30%
- Change (treated/control) [1, 5]: 0.8
- Change (treated/control), % down [1, 5]: 20%
- Change (treated/control) [1, 6]: 0.7
- Change (treated/control), % down [1, 6]: 30%
- Change (treated/control) [1, 7]: 0.6
- Change (treated/control), % down [1, 7]: 40%
- Change (treated/control) [1, 8]: 0.8
- Change (treated/control), % down [1, 8]: 20%
- Ser25 phosphorylation of oncoprotein 18 (OP18) ([2]; in vivo, tumor tissue DU145, 1-hour treatment): down-regulation
- Change (treated/control) [2, 3]: 0.4
- Change (treated/control), % down [2, 3]: 60%
- Change (treated/control) [2, 5]: 0.7
- Change (treated/control), % down [2, 5]: 30%
- Change (treated/control) [2, 9]: 0.5
- Change (treated/control), % down [2, 9]: 50%
- Change (treated/control) [2, 7]: 0.8
- Change (treated/control), % down [2, 7]: 20%
- Change (treated/control) [2, 10]: 0.6
- Change (treated/control), % down [2, 10]: 40%
- Change (treated/control) [2, 8]: 0.6
- Change (treated/control), % down [2, 8]: 40%
